The results in this text go back to EP0973746B1, “SUBSTITUTED 3-CYANO QUINOLINES” (Wyeth Holdings Corporation, priority 1997, dated 1998).

Values after ≈ are worked out from the molar mass of the structure shown.

T1 sequence (P00533 669-1210): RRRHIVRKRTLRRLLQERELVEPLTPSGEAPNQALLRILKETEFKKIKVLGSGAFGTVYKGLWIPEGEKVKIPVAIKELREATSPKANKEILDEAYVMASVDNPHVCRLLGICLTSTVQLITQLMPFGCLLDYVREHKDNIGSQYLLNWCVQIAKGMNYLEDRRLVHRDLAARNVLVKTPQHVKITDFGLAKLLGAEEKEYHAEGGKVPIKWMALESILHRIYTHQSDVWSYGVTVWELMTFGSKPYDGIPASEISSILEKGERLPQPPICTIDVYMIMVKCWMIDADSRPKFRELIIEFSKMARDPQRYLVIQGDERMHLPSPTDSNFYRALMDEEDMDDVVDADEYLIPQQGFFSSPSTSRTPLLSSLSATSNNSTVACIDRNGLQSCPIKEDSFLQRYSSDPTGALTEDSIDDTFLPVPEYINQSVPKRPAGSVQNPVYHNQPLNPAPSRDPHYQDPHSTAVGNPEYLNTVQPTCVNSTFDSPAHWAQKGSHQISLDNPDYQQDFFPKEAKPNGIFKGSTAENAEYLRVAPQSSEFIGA

The first test concerns SW948. In words: Inhibition of cancer cell growth as measured by cell number, SW948. In kind it is cell-based. The note with it: Homo sapiens, SW948, 48 h, read-out: IC50 SW948.
As for `N#Cc1cnc2ccc([N+](=O)[O-])cc2c1Nc1cccc(C(F)(F)F)c1` [Example 23, 6-Nitro-4[(3-trifluoromethylphenyl)amino]-3-quinolinecarbonitrile], the IC50 (in general, the concentration at which inhibition is half-maximal) is more than 100 µg/mL.

The next test has as its system B7474. The test is described as follows: Inhibition of cancer cell growth as measured by cell number, B7474. It counts as cell-based. The note with it: Homo sapiens, 48 h, read-out: IC50 B7474.
For the molecule `COc1cc2ncc(C#N)c(Nc3cccc(C(F)(F)F)c3)c2cc1OC` [Example 42, 4-[(3-Trifluoromethylphenyl)amino]-6,7-dimethoxy-3-quinolinecarbonitrile], the IC50 was found to be 6.78 µg/mL (≈ 18.2 µM).

For another test, the system named is T47D. The test is described as follows: Inhibition of cancer cell growth as measured by cell number, T47D. In kind it is cell-based. As to conditions: Homo sapiens, 48 h, read-out: IC50 T47D.
Regarding `COc1cc2ncc(C#N)c(Nc3cccc(C(F)(F)F)c3)c2cc1OC` [Example 42, 4-[(3-Trifluoromethylphenyl)amino]-6,7-dimethoxy-3-quinolinecarbonitrile], the IC50 came out at 6.78 µg/mL (≈ 18.2 µM).
On the same count and under the same terms, with `COc1ccc(Nc2c(C#N)cnc3cc(OC)c(OC)cc23)cc1OC` [Example 43, 4-[(3,4-Dimethoxyphenyl)amino]-6,7-dimethoxy-3-quinolinecarbonitrile] the figure was 4.5 µg/mL (≈ 12.3 µM).

For another test, the system named is CCL228. The test is described as follows: Inhibition of cancer cell growth as measured by cell number, CCL228. In kind it is cell-based. As to conditions: Homo sapiens, 48 h, read-out: IC50 CCL228.
With `COc1ccc(Nc2c(C#N)cnc3cc(OC)c(OC)cc23)cc1OC` [Example 43, 4-[(3,4-Dimethoxyphenyl)amino]-6,7-dimethoxy-3-quinolinecarbonitrile], the IC50 stood at 2.56 µg/mL (≈ 7 µM).

The test system of a further test is LNCAP. In words: Inhibition of cancer cell growth as measured by cell number, LNCAP. In kind it is cell-based. The note with it: Homo sapiens, 48 h, read-out: IC50 LNCAP.
In the case of `COc1ccc(Nc2c(C#N)cnc3cc(OC)c(OC)cc23)cc1OC` [Example 43, 4-[(3,4-Dimethoxyphenyl)amino]-6,7-dimethoxy-3-quinolinecarbonitrile], the IC50 stood at 4.53 µg/mL (≈ 12.4 µM).

A further test has as its system SKBR3. The test is described as follows: Inhibition of cancer cell growth as measured by cell number, SKBR3.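 Note: SK-BR-3 cells were selected as a line overexpressing HER2/neu.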 In kind it is cell-based, human. As to conditions: Homo sapiens, SK-BR-3, 48 h, read-out: IC50 SKBR3.
Description: (§1) The cell lines were chosen since they overexpressed epidermal growth factor receptor (EGFR) (i.e. A431) or HER2/neu (SKBR3), or had little to no expression of the these receptors (SW620, LOX, MCF7).
Regarding `CN(C)CC=CC(=O)Nc1ccc2ncc(C#N)c(Nc3ccc(F)c(Cl)c3)c2c1` [Example 145], the IC50 is 0.03 µg/mL (≈ 0.0708 µM).

The same test, now with this note: Homo sapiens, SK-BR-3, 48 h, read-out: IC50 SKBR3, cell number, Sulforhodamine B, 48 hours exposure; Table 7.
Regarding `COc1cc2ncc(C#N)c(Nc3cccc(C(F)(F)F)c3)c2cc1OC` [Example 42, 4-[(3-Trifluoromethylphenyl)amino]-6,7-dimethoxy-3-quinolinecarbonitrile], the IC50 was found to be 12.5 µg/mL (≈ 33.6 µM).
On the same count and under the same terms, with `COc1ccc(Nc2c(C#N)cnc3cc(OC)c(OC)cc23)cc1OC` [Example 43, 4-[(3,4-Dimethoxyphenyl)amino]-6,7-dimethoxy-3-quinolinecarbonitrile] the figure was 5.19 µg/mL (≈ 14.2 µM).

The target in a further test is Epithelial Cell Kinase (ECK) (Homo sapiens, UniProt P29317). In words: biochemical.
Sequence of Epithelial Cell Kinase (ECK) (P29317 24-976, species assumed): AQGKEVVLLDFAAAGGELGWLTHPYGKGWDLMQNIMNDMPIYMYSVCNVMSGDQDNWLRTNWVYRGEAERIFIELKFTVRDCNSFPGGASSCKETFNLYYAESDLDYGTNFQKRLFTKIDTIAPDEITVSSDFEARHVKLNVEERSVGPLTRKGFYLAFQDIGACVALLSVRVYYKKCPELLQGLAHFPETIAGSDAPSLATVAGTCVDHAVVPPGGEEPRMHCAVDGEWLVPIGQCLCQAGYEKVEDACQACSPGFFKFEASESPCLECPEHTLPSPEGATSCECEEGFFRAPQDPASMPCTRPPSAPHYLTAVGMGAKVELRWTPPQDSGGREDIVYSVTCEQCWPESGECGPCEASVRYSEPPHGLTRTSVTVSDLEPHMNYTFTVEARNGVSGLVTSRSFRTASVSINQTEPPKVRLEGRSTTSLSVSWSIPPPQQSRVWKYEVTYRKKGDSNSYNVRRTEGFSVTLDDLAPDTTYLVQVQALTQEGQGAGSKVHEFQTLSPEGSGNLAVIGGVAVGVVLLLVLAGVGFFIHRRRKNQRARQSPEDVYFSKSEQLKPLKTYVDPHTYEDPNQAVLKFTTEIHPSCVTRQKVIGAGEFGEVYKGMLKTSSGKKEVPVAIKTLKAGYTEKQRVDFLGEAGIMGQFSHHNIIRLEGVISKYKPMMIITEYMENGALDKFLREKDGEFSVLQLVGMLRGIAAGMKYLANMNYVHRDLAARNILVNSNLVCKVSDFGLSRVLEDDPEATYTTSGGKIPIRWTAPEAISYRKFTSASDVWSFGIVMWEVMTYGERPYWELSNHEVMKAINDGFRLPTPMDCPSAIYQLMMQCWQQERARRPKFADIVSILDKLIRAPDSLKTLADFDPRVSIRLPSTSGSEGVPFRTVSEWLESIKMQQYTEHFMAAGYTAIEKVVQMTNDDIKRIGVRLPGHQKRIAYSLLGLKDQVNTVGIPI
Details: not given
`CN(C)CC=CC(=O)Nc1ccc2ncc(C#N)c(Nc3ccc(F)c(Cl)c3)c2c1` [Example 145] gave an IC50 of more than 47.2 µM.
Same read-out and setting: with `N#Cc1cnc2ccc([N+](=O)[O-])cc2c1Nc1cccc(C(F)(F)F)c1` [Example 23, 6-Nitro-4[(3-trifluoromethylphenyl)amino]-3-quinolinecarbonitrile] the figure was 27.9 µM.

A further test concerns NEC. The test is described as follows: Inhibition of cancer cell growth as measured by cell number, NEC. As to conditions: Homo sapiens, 48 h, read-out: IC50 NEC. It counts as cell-based.
`COc1cc2ncc(C#N)c(Nc3cccc(C(F)(F)F)c3)c2cc1OC` [Example 42, 4-[(3-Trifluoromethylphenyl)amino]-6,7-dimethoxy-3-quinolinecarbonitrile]: the IC50 came to 6.47 µg/mL (≈ 17.3 µM).

The subject of a further test is CX1. The test is described as follows: Inhibition of cancer cell growth as measured by cell number, CX1. In kind it is cell-based. As to conditions: Homo sapiens, CX-1, 48 h, read-out: IC50 CX1.
As to `COc1ccc(Nc2c(C#N)cnc3cc(OC)c(OC)cc23)cc1OC` [Example 43, 4-[(3,4-Dimethoxyphenyl)amino]-6,7-dimethoxy-3-quinolinecarbonitrile], the IC50 was found to be 3.43 µg/mL (≈ 9.38 µM).

The next test has as its target T1, His-tagged cytoplasmic domain of EGFR (Homo sapiens, UniProt P00533).
T1 construct: containing the EGFR cDNA encoding amino acids 645 - 1186 preceded by Met-Ala-(His)6; made in house; host or cells: Sf9 cells, recombinant baculovirus vHcEGFR52
In words: Inhibition of Epidermal Growth Factor Receptor Kinase (EGF-R) using recombinant enzyme.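 Note: radiometric kinase assay measuring radiolabeled phosphate transfer from ATP onto the peptide tyrosine by scintillation counting, control is reaction without compound, background subtracted, IC50 from dose-response curve.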 In kind it is biochemical. As to conditions: recombinant enzyme; RR-SRC peptide; average of the number of tests; read-out: IC50.
In the case of `CN(C)CC=CC(=O)Nc1ccc2ncc(C#N)c(Nc3ccc(F)c(Cl)c3)c2c1` [Example 145], the IC50 stood at 0.06 µM.

For the next test, the system named is LS174T. The test is described as follows: Inhibition of cancer cell growth as measured by cell number, LS174T. In kind it is cell-based. The note with it: Homo sapiens, 48 h, read-out: IC50 LS174T.
For the molecule `COc1cc2ncc(C#N)c(Nc3cccc(C(F)(F)F)c3)c2cc1OC` [Example 42, 4-[(3-Trifluoromethylphenyl)amino]-6,7-dimethoxy-3-quinolinecarbonitrile], the IC50 was 5.97 µg/mL (≈ 16 µM).
Still for that read-out and setting: with `COc1ccc(Nc2c(C#N)cnc3cc(OC)c(OC)cc23)cc1OC` [Example 43, 4-[(3,4-Dimethoxyphenyl)amino]-6,7-dimethoxy-3-quinolinecarbonitrile] the figure was 4.22 µg/mL (≈ 11.6 µM).

For another test, the system named is A431. The test is described as follows: Inhibition of cancer cell growth as measured by cell number, A431.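 Note: human A431 line, picked because it overexpresses epidermal growth factor receptor (EGFR).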 It counts as cell-based, human. The note with it: Homo sapiens, A-431, 48 h, read-out: IC50 A431.
Description: as §1
For `CN(C)CC=CC(=O)Nc1ccc2ncc(C#N)c(Nc3ccc(F)c(Cl)c3)c2c1` [Example 145], the IC50 was found to be 0.03 µg/mL (≈ 0.0708 µM).

For the next test, the target named is T2, Kinase insert Domain containing Receptor (KDR: the catalytic domain of the VEGF receptor) (Homo sapiens, UniProt P35968).
T2 construct: KDR: the catalytic domain of the VEGF receptor
T2 sequence (P35968 834-1162 limits assumed): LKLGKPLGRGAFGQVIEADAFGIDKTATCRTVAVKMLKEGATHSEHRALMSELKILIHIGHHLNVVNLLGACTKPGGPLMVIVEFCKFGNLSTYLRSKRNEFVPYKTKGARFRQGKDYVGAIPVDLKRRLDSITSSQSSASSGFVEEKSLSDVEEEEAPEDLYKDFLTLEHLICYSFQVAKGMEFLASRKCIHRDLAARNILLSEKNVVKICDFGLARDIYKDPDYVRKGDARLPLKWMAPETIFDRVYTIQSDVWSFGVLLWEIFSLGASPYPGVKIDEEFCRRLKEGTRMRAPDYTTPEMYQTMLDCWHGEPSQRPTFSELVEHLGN
The test is described as follows: Inhibition of Kinase insert Domain containing Receptor (KDR).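 Note: KDR phosphorylating a Glu:Tyr 4:1 copolymer with P32- or P33-labelled ATP, Mg++ and vanadate, read as acid-insoluble radiolabel, compared with compound-free reaction.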 It counts as biochemical. As to conditions: pH 7.2; radioactive format; read-out: KDR IC50 (converted).
Turning to `CN(C)CC=CC(=O)Nc1ccc2ncc(C#N)c(Nc3ccc(F)c(Cl)c3)c2c1` [Example 145], the IC50 is more than 70.8 µM.

The next test has as its target recombinant human MEK 1 (MAPKK) and recombinant human ERK2 (MAPK). The test is described as follows: Mitogen Activated Protein Kinase (MAPK) assay, two component coupled MEK 1 / ERK2.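 Note: MEK 1-activated ERK2 phosphorylates MBP or Myc peptide with 33P-ATP, filter capture and scintillation counting, inhibitor preincubated with ERK2 30 min at 0 °C, inhibition relative to uninhibited control.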 In kind it is biochemical. The note with it: separate entries for the same compound = evaluated more than one time.
Take `CN(C)CC=CC(=O)Nc1ccc2ncc(C#N)c(Nc3ccc(F)c(Cl)c3)c2c1` [Example 145]: the IC50 is 35 µM.
Regarding `COc1ccc(Nc2c(C#N)cnc3cc(OC)c(OC)cc23)cc1OC` [Example 43, 4-[(3,4-Dimethoxyphenyl)amino]-6,7-dimethoxy-3-quinolinecarbonitrile], the IC50 was determined as 30 µM.
For `N#Cc1cnc2ccc([N+](=O)[O-])cc2c1Nc1cccc(C(F)(F)F)c1` [Example 23, 6-Nitro-4[(3-trifluoromethylphenyl)amino]-3-quinolinecarbonitrile], the IC50 is more than 100 µM.

Another test concerns MCF7. In words: Inhibition of cancer cell growth as measured by cell number, MCF7.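 Note: MCF7 was included as a line with little or no EGFR or HER2/neu expression, in contrast to the receptor-overexpressing lines of the panel.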 It counts as cell-based, human. As to conditions: Homo sapiens, MCF7, 48 h, read-out: IC50 MCF7, cell number, Sulforhodamine B, 48 hours exposure; Table 5.
Description: as §1
Consider `COc1cc2ncc(C#N)c(Nc3cccc(C(F)(F)F)c3)c2cc1OC` [Example 42, 4-[(3-Trifluoromethylphenyl)amino]-6,7-dimethoxy-3-quinolinecarbonitrile], for which the IC50 was found to be 6.14 µg/mL (≈ 16.5 µM).
Turning to `COc1ccc(Nc2c(C#N)cnc3cc(OC)c(OC)cc23)cc1OC` [Example 43, 4-[(3,4-Dimethoxyphenyl)amino]-6,7-dimethoxy-3-quinolinecarbonitrile], the IC50 is 5.83 µg/mL (≈ 16 µM).

The subject of the next test is LOX. In words: Inhibition of cancer cell growth as measured by cell number, LOX.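 Note: LOX cells served as a line with low or absent EGFR and HER2/neu expression, in contrast to receptor-overexpressing lines.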 In kind it is cell-based, human. The note with it: Homo sapiens, LOX, 48 h, read-out: IC50 LOX, cell number, Sulforhodamine B, 48 hours exposure; Table 6.
Description: as §1
Consider `COc1ccc(Nc2c(C#N)cnc3cc(OC)c(OC)cc23)cc1OC` [Example 43, 4-[(3,4-Dimethoxyphenyl)amino]-6,7-dimethoxy-3-quinolinecarbonitrile], for which the IC50 is 2.86 µg/mL (≈ 7.83 µM).

A further test relates to CCRF-CFM. The test is described as follows: Inhibition of cancer cell growth as measured by cell number, CCRF-CFM. In kind it is cell-based. The note with it: Homo sapiens, 48 h, read-out: IC50 CCRF-CFM.
For the molecule `COc1cc2ncc(C#N)c(Nc3cccc(C(F)(F)F)c3)c2cc1OC` [Example 42, 4-[(3-Trifluoromethylphenyl)amino]-6,7-dimethoxy-3-quinolinecarbonitrile], the IC50 was 5.23 µg/mL (≈ 14 µM).

The test system of another test is SW620. The test is described as follows: Inhibition of cancer cell growth as measured by cell number, SW620.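 Note: SW620 was included as a cell line with little or no EGFR or HER2/neu expression, in contrast to receptor-overexpressing lines.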 It counts as cell-based, human. The note with it: Homo sapiens, SW-620, 48 h, read-out: IC50 SW620.
Description: as §1
Consider `CN(C)CC=CC(=O)Nc1ccc2ncc(C#N)c(Nc3ccc(F)c(Cl)c3)c2c1` [Example 145], for which the IC50 was 0.4 µg/mL (≈ 0.944 µM).
On the same count and under the same terms, with `N#Cc1cnc2ccc([N+](=O)[O-])cc2c1Nc1cccc(C(F)(F)F)c1` [Example 23, 6-Nitro-4[(3-trifluoromethylphenyl)amino]-3-quinolinecarbonitrile] the figure was more than 100 µg/mL.

The test is the same for the next values; noted with them: Homo sapiens, SW-620, 48 h, read-out: IC50 SW620, cell number, Sulforhodamine B, 48 hours exposure; Table 4.
With `COc1cc2ncc(C#N)c(Nc3cccc(C(F)(F)F)c3)c2cc1OC` [Example 42, 4-[(3-Trifluoromethylphenyl)amino]-6,7-dimethoxy-3-quinolinecarbonitrile], the IC50 is 31.2 µg/mL (≈ 83.5 µM).
Still for that read-out and setting: with `COc1ccc(Nc2c(C#N)cnc3cc(OC)c(OC)cc23)cc1OC` [Example 43, 4-[(3,4-Dimethoxyphenyl)amino]-6,7-dimethoxy-3-quinolinecarbonitrile] the figure was 4.33 µg/mL (≈ 11.8 µM).

The test system of another test is COLO205. The test is described as follows: Inhibition of cancer cell growth as measured by cell number, COLO205. In kind it is cell-based. As to conditions: Homo sapiens, COLO 205, 48 h, read-out: IC50 COLO205.
With `N#Cc1cnc2ccc([N+](=O)[O-])cc2c1Nc1cccc(C(F)(F)F)c1` [Example 23, 6-Nitro-4[(3-trifluoromethylphenyl)amino]-3-quinolinecarbonitrile], the IC50 is more than 100 µg/mL.
